One may read the viability, T/C as the result in the treated group divided by that in the control group, in per cent. By IC50 is commonly meant the concentration that gives 50% inhibition.

viability, T/C and IC50 data for 6 molecules are collected here from PubChem BioAssay AID2060511 (Molecular Pharmacology Branch, DTP, NCI, 2025).

Values joined by “and” are separate entries in the source; they are usually repeats but may differ in a detail not shown here. Equal entries are not always repeated. A value given as a limit tells only on which side of the number the result lay.

This assay concerns 422866-222-R5-J1-PDC spheroids with HUVEC/MSC, viability. The assay is described as follows: Anticancer human tumor 422866-222-R5-J1-PDC patient-derived pancreatic adenocarcinoma cell line growth inhibition [GQUAD]. The settings on record: for viability, T/C: stronger effect = lower value. The source says:
DNA G-quadruplex Stabilizer Agents in Combinations in Complex Spheroids
A high-throughput screen of multi-cell type tumor spheroids was designed to identify active combinations of DNA G-quadruplex stabilizer agents and targeted small molecules. Complex spheroids include a stromal component modeled by human endothelial cells (HUVEC) and fibroblasts modeled by human mesenchymal stem cells (MSCs). The concentration ranges selected for each drug and investigational agent were based upon clinically achievable concentrations if the clinical Cmax of the agent was known.
Compounds. The drugs and investigational agents: pidnarulex (CX-5461; NSC782164), APTO-253 (NSC789042), BRACO-19 (NSC847499), peposertib (NSC802822), ceralasertib (NSC780249), elimusertib (NSC800525), camonsertib (NSC841442), AZD-1390 (NSC803789), olaparib (NSC753686), talazoparib (NSC767125), ART-558 (NSC835418), sotorasib (NSC818433), MRTX-1133 (NSC836407), SN-38 (NSC673596), topotecan (NSC609699), etoposide (NSC141540), doxorubicin (NSC123127), gemcitabine (NSC613327), 5-fluorouracil (NSC19893), paclitaxel (NSC125973), vemurafenib (NSC761431), panobinostat (NSC761190), R-306465 (JNJ-16241199; NSC773264), adavosertib (NSC754352), TP-3654 (NSC805149), carboplatin (NSC241240), KSQ-4279 (NSC840948), and staurosporine (NSC755774) were obtained from the National Cancer Institute (NCI) Developmental Therapeutics Program Chemical Repository (34). The FDA-approved anticancer drug set is available from the NCI Developmental Therapeutics Program. […] The stock solutions were prepared in dimethyl sulfoxide (DMSO, Sigma-Aldrich, St. Louis, MO, cat. D2650) at 800-fold the tested concentration and stored at -70 degrees C prior to their use. All drugs and investigational agents were tested over a range starting from a high concentration at or near the clinical Cmax and decreasing in half-log increments. If the clinical Cmax for an agent had not been determined, the highest concentration tested was 10 microM.
2.3 Cell Culture. All cells were maintained in an incubator at 37 degrees C and 5% CO2 with 95% humidity. The PDC lines were cultured according to standard operating procedures established by the NCI PDMR. All PDCs were thawed and cultured in Matrigel-coated flasks prepared with a working solution of 1X Ham's F-12 nutrient mix, without supplementation (Invitrogen, cat. 11765054), 100 U/mL penicillin-streptomycin (Invitrogen, cat. 15140122), and 2.5% Matrigel (Corning Inc., cat. 354248) for the first three passages. The 857933-349-R-J2-PDC line was cultured in 6C/Colon 1B media, which includes advanced DMEM/F-12 (Thermo Fisher Scientific, cat. 12634028), 10 mM HEPES (Thermo Fisher Scientific, cat. 15630080), 1X GlutaMAX supplement (Thermo Fisher Scientific, cat. 35050061), 0.1 mg/mL primocin (InvivoGen, cat. ant-pm-2), 10% defined fetal bovine serum, heat inactivated (HyClone Laboratories Inc., cat. SH30070.03HI), 50% L-WRN conditioned media (ATCC, cat. CRL-3276), 1.25 mM N-Acetyl-L-cysteine (Sigma-Aldrich, cat. A9165), 10 mM nicotinamide (Sigma-Aldrich, cat. N0636), 1X B-27 supplement (Thermo Fisher Scientific, cat. 17504044), 1X N-2 supplement (Thermo Fisher Scientific, cat. 17502048), 10 microM Y-27632 dihydrochloride (Tocris Bioscience, cat. 1254), and 50 ng/mL human EGF recombinant protein (Thermo Fisher Scientific, cat. PHG0311). The 485176-168-R4-J1-PDC line was cultured in Panc media, which includes all 6C/Colon 1B media components plus 100 ng/mL human FGF-10 (Thermo Fisher Scientific, cat. 100-26), 500 nM SB-431542 (Selleckchem, cat. S1067), and gastrin (Tocris, cat. 3006).
[…]

Where [1] appears, read: compound alone, run of 04/16/2024.
Setting [2] is: curve of first compound, second compound 0.0316 µM.
The mark [3] stands for this setting: curve of first compound, second compound 0.1 µM.
Where [4] appears, read: curve of first compound, second compound 0.316 µM.
Where [5] appears, read: curve of first compound, second compound 1 µM.
The mark [6] stands for this setting: curve of first compound, second compound 3.16 µM.
Where [7] appears, read: curve of first compound, second compound 10 µM.
[8] abbreviates: second compound 0.0316 µM, first compound 0.0316 µM.
Where [9] appears, read: second compound 0.0316 µM, first compound 0.1 µM.
Where [10] appears, read: second compound 0.0316 µM, first compound 0.316 µM.
The mark [11] stands for this setting: second compound 0.0316 µM, first compound 1 µM.
Setting [12] is: second compound 0.0316 µM, first compound 3.16 µM.
The mark [13] stands for this setting: second compound 0.0316 µM, first compound 10 µM.
The mark [14] stands for this setting: second compound 0.1 µM, first compound 0.0316 µM.
[15] abbreviates: second compound 0.1 µM, first compound 0.1 µM.
Setting [16] is: second compound 0.1 µM, first compound 0.316 µM.
Where [17] appears, read: second compound 0.1 µM, first compound 1 µM.
[18] abbreviates: second compound 0.1 µM, first compound 3.16 µM.
Setting [19] is: second compound 0.1 µM, first compound 10 µM.
The mark [20] stands for this setting: second compound 0.316 µM, first compound 0.0316 µM.
Where [21] appears, read: second compound 0.316 µM, first compound 0.1 µM.
The mark [22] stands for this setting: second compound 0.316 µM, first compound 0.316 µM.
[23] abbreviates: second compound 0.316 µM, first compound 1 µM.
Where [24] appears, read: second compound 0.316 µM, first compound 3.16 µM.
The mark [25] stands for this setting: second compound 0.316 µM, first compound 10 µM.
Where [26] appears, read: second compound 1 µM, first compound 0.0316 µM.
Where [27] appears, read: second compound 1 µM, first compound 0.1 µM.
Setting [28] is: second compound 1 µM, first compound 0.316 µM.
[29] abbreviates: second compound 1 µM, first compound 1 µM.
The mark [30] stands for this setting: second compound 1 µM, first compound 3.16 µM.
The mark [31] stands for this setting: second compound 1 µM, first compound 10 µM.
Where [32] appears, read: second compound 3.16 µM, first compound 0.0316 µM.
Where [33] appears, read: second compound 3.16 µM, first compound 0.1 µM.
Setting [34] is: second compound 3.16 µM, first compound 0.316 µM.
Where [35] appears, read: second compound 3.16 µM, first compound 1 µM.
Where [36] appears, read: second compound 3.16 µM, first compound 3.16 µM.
The mark [37] stands for this setting: second compound 3.16 µM, first compound 10 µM.
Setting [38] is: second compound 10 µM, first compound 0.0316 µM.
[39] abbreviates: second compound 10 µM, first compound 0.1 µM.
Setting [40] is: second compound 10 µM, first compound 0.316 µM.
The mark [41] stands for this setting: second compound 10 µM, first compound 1 µM.
Setting [42] is: second compound 10 µM, first compound 3.16 µM.
The mark [43] stands for this setting: second compound 10 µM, first compound 10 µM.
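Note: spheroids exposed to compounds for seven days before reading.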
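Throughout, for viability, T/C: percent viability relative to DMSO vehicle control taken as 100%.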

Take `C=CCn1c(=O)c2cnc(Nc3ccc(N4CCN(C)CC4)cc3)nc2n1-c1cccc(C(C)(C)O)n1`: the viability, T/C is, setting by setting: (compound 0.0316 µM) 80.3% and 112% and 88.7%; (compound 0.1 µM) 106% and 90.1% and 74.5%; (compound 0.316 µM) 125% and 67.2% and 52.5%; (compound 1 µM) 143% and 39.7% and 40.5%; (compound 3.16 µM) 172% and 31.3% and 30.6%; (compound 10 µM) 99.8% and 32.3% and 27.9%.
As for `COc1ncnc(C2CC2)c1-c1ncc2cnn(Cc3ccc(-c4nc(C(F)(F)F)cn4C(C)C)cc3)c2n1`, the viability, T/C is 91.6% and 95% and 118% (compound 0.0316 µM); 94% and 105% and 97% (compound 0.1 µM); 92.3% and 121% and 97.5% (compound 0.316 µM); 79.7% and 102% and 98.1% (compound 1 µM); 97% and 60.6% and 99.1% (compound 3.16 µM); 117% and 43.5% and 105% (compound 10 µM). In addition, for the setting “curve of compound”, the IC50 is > 10 µM and 6.45 µM.
Take `Cc1[nH]c2ccc(F)cc2c1-c1nc2c3cccnc3c3ncccc3c2[nH]1`: the viability, T/C (compound 3.16 µM) was 84.5% [middle of 12 runs]. Besides, the IC50 under setting [1] is more than 10 µM and the IC50 (compound alone, run of 04/22/2024) is more than 10 µM.
As for `Cc1cnc(CNC(=O)c2c(=O)c3ccc(N4CCCN(C)CC4)nc3n3c2sc2ccccc23)cn1`, the viability, T/C is 96.7% [middle of 12 runs] (compound 0.1 µM); 90.4% [middle of 12 runs] (compound 0.316 µM); 85.3% [middle of 12 runs] (compound 1 µM); 87.8% [middle of 12 runs] (compound 3.16 µM); 81% [middle of 11 runs] (compound 10 µM). Further, the IC50 under setting [1] was more than 10 µM.
With `CC1COCCN1c1cc(-c2ccnn2C)c2ccnc(-c3ccn[nH]3)c2n1` (stereo unspecified) + CN(C)c1ccc(Nc2c3ccc(NC(=O)CCN4CCCC4)cc3nc3cc(NC(=O)CCN4CCCC4)ccc23)cc1, the IC50 runs as follows: under setting [2], more than 10 µM; under setting [3], more than 10 µM; under setting [4], more than 10 µM; under setting [5], 0.0316 µM; under setting [6], 0.0316 µM; under setting [7], 0.0316 µM. Also, the viability, T/C was 88.7% under setting [8]; 60.3% under setting [9]; 53.2% under setting [10]; 46.5% under setting [11]; 73.2% under setting [12]; 92.6% under setting [13]. Further, the viability, T/C is 92.4% under setting [14]; 62.7% under setting [15]; 46.2% under setting [16]; 36.2% under setting [17]; 86.8% under setting [18]; 84.2% under setting [19]. For the same molecule, the viability, T/C reads like this: under setting [20], 86.8%; under setting [21], 70.2%; under setting [22], 46.7%; under setting [23], 39.4%; under setting [24], 86.9%; under setting [25], 89.3%. For the same molecule, the viability, T/C is 73% under setting [26]; 52% under setting [27]; 37.2% under setting [28]; 39.2% under setting [29]; 91.2% under setting [30]; 71.5% under setting [31]. Moreover, the viability, T/C reads like this: under setting [32], 79%; under setting [33], 54.8%; under setting [34], 38%; under setting [35], 39.7%; under setting [36], 81.2%; under setting [37], 94.6%. In addition, the viability, T/C is, setting by setting: under setting [38], 76.8%; under setting [39], 52.7%; under setting [40], 40.2%; under setting [41], 41.4%; under setting [42], 83.9%; under setting [43], 83.8%.
For `O=C(c1cc(Cc2n[nH]c(=O)c3ccccc23)ccc1F)N1CCN(C(=O)C2CC2)CC1` + CN(C)c1ccc(Nc2c3ccc(NC(=O)CCN4CCCC4)cc3nc3cc(NC(=O)CCN4CCCC4)ccc23)cc1, the IC50 by setting is: under setting [2], more than 10 µM; under setting [3], more than 10 µM; under setting [4], more than 10 µM; under setting [5], more than 10 µM; under setting [6], more than 10 µM; under setting [7], more than 10 µM. Moreover, the viability, T/C is, setting by setting: under setting [8], 108%; under setting [9], 95.8%; under setting [10], 96.3%; under setting [11], 99.7%; under setting [12], 75.7%; under setting [13], 70.1%. For the same molecule, the viability, T/C under setting [14] is 90.3%; the viability, T/C under setting [15] was 95.3%; the viability, T/C under setting [16] is 84.9%; the viability, T/C under setting [17] was 83%; the viability, T/C under setting [18] is 93.2%; the viability, T/C under setting [19] is 67.5%. Besides, the viability, T/C reads like this: under setting [20], 86.4%; under setting [21], 107%; under setting [22], 79.7%; under setting [23], 83.3%; under setting [24], 79.8%; under setting [25], 70.4%. The viability, T/C is, setting by setting: under setting [26], 80%; under setting [27], 79.3%; under setting [28], 78.3%; under setting [29], 77.4%; under setting [30], 74.5%; under setting [31], 67.5%. In addition, the viability, T/C is 87% under setting [32]; 92.3% under setting [33]; 86.5% under setting [34]; 85.7% under setting [35]; 85% under setting [36]; 80.6% under setting [37]. In addition, the viability, T/C reads like this: under setting [38], 81.8%; under setting [39], 83.6%; under setting [40], 87.4%; under setting [41], 79.5%; under setting [42], 83.6%; under setting [43], 79.9%.
